Results on 16 compounds are retold here after PubChem BioAssay (NCI).

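All cell lines were grown in 96-well plates and treated with compound for 48 hours. TGI: concentration producing complete growth inhibition.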

Some test systems named below: A498 renal; HT29 colon; IGROV1 ovarian; MALME-3M melanoma; MOLT-4 leukemia; OVCAR-5 ovarian; SK-MEL-2 melanoma; SR leukemia; UACC-62 melanoma; HS 578T breast.
Holding throughout (test): NCI anticancer screen, dose series, 48 h

Consider `CCOC(=O)CC1COc2ccc3c(c21)OCO3` (centres undefined), for which the TGI with A498 renal, in the experiment on HT29 colon, with IGROV1 ovarian, with MALME-3M melanoma, in the experiment with MOLT-4 leukemia and in the experiment with OVCAR-5 ovarian was above 100 µM each time. Besides, the TGI in the experiment with SK-MEL-2 melanoma, in the experiment with SR leukemia and with UACC-62 melanoma was above 100 µM each time.

Regarding `COC(=O)N1CC(=O)C(C(=O)NC23CC4CC(CC(C4)C2)C3)C1` (centres undefined), the TGI with A498 renal, with HT29 colon, in the experiment on IGROV1 ovarian, in the experiment with MALME-3M melanoma, in the experiment with MOLT-4 leukemia and in the experiment on OVCAR-5 ovarian was above 100 µM each time. Further, the TGI in the experiment with SK-MEL-2 melanoma, in the experiment with SR leukemia and in the experiment with UACC-62 melanoma was above 100 µM in each case.

As to `CCOC(=O)C1SC(=Nc2ccc(OC)c(OC)c2)N=C1C` (centres undefined), the TGI in the experiment with A498 renal was above 100 µM; with HT29 colon, 34.8 µM; in the experiment with IGROV1 ovarian it was above 100 µM; with MALME-3M melanoma, 83.4 µM; in the experiment with OVCAR-5 ovarian, above 100 µM; with SK-MEL-2 melanoma it was above 100 µM. Also, the TGI in the experiment with UACC-62 melanoma turned out to be 67.9 µM.

Regarding `CC(C)C(=O)N1Cc2cc(Cl)cc(Cl)c2OC(=O)c2ccccc21`, the TGI in the experiment on A498 renal is 97.9 µM; with HT29 colon, above 100 µM; in the experiment on IGROV1 ovarian, 81 µM; with MALME-3M melanoma it was 49.3 µM; with MOLT-4 leukemia it was 62 µM; in the experiment with OVCAR-5 ovarian it was 90 µM. For the same compound, the TGI in the experiment on SK-MEL-2 melanoma stood at 50 µM; in the experiment with UACC-62 melanoma it was 42.2 µM.

Consider `O=P1(c2ccccc2)c2ccccc2-c2ccccc21`, for which the TGI in the experiment on HS 578T breast, in the experiment with IGROV1 ovarian, in the experiment with MOLT-4 leukemia, with SK-MEL-2 melanoma and in the experiment on UACC-62 melanoma was above 100 µM throughout.

As for `O=C(/C=C\c1cccc2ccccc12)c1ccc(F)cc1`, the TGI is above 100 µM with A498 renal; 36.6 µM in the experiment with HT29 colon; 29.4 µM with IGROV1 ovarian; 32.1 µM with MALME-3M melanoma; 74.2 µM in the experiment with MOLT-4 leukemia; 33.2 µM in the experiment with OVCAR-5 ovarian. The TGI with UACC-62 melanoma is 27.5 µM.

Turning to `O=C1CSC(c2c[nH]c3ccccc23)N1c1ccc(Cl)cc1` (centres undefined), the TGI in the experiment on A498 renal, in the experiment on HS 578T breast, in the experiment on HT29 colon, with IGROV1 ovarian, in the experiment on MOLT-4 leukemia and in the experiment on OVCAR-5 ovarian was above 100 µM throughout. Further, the TGI in the experiment with SK-MEL-2 melanoma and in the experiment on UACC-62 melanoma was above 100 µM in each case.

Consider `N#CC(N=Nc1ccccc1C(=O)O)C(N)=O` (centres undefined), for which the TGI in the experiment with HT29 colon, with MALME-3M melanoma, with MOLT-4 leukemia, in the experiment on OVCAR-5 ovarian, with SK-MEL-2 melanoma and in the experiment with SR leukemia was above 100 µM throughout. In the experiment with UACC-62 melanoma, this compound yielded a TGI above 100 µM.

As for `CC(=O)OCC1OC(n2ccc(=O)[nH]c2=O)C(OC(C)=O)C(OC(C)=O)C1OC(C)=O` (centres undefined), the TGI in the experiment with A498 renal, with HT29 colon, with IGROV1 ovarian, in the experiment with MALME-3M melanoma, in the experiment with OVCAR-5 ovarian and in the experiment with SK-MEL-2 melanoma was above 100 µM each time. Further, the TGI in the experiment on SR leukemia and with UACC-62 melanoma was above 100 µM each time.

Turning to `COc1ccc(C2=NN(c3ccccc3)C[N+](c3ccc(C)cc3)=N2)cc1`, the TGI in the experiment on A498 renal is above 100 µM; with HT29 colon, above 100 µM; with IGROV1 ovarian, above 100 µM; in the experiment with MALME-3M melanoma it was above 100 µM; in the experiment on MOLT-4 leukemia it was 88.5 µM; in the experiment on OVCAR-5 ovarian, 79.8 µM. Besides, the TGI in the experiment on SR leukemia was above 100 µM.

As for `COc1cc(C2C3=C(COC3=O)Oc3cc4c(cc32)OCO4)ccc1O` (centres undefined), the TGI in the experiment with A498 renal was above 25.7 µM; in the experiment with HT29 colon, 37.9 µM; in the experiment with IGROV1 ovarian it was above 100 µM; in the experiment with MOLT-4 leukemia, above 100 µM; with OVCAR-5 ovarian, above 100 µM; in the experiment with SK-MEL-2 melanoma, above 100 µM. The same compound returned a TGI in the experiment on UACC-62 melanoma above 100 µM.

On to `O=C(Nc1ccc(Cl)cc1C(F)(F)F)C(=O)C1CCCS1(=O)=O` (centres undefined), for which the TGI was above 100 µM in the experiment on A498 renal; above 100 µM with HT29 colon; above 10 µM in the experiment on IGROV1 ovarian; above 100 µM with MALME-3M melanoma; above 100 µM with MOLT-4 leukemia; above 100 µM in the experiment with OVCAR-5 ovarian. Further, the TGI in the experiment with SR leukemia and with UACC-62 melanoma was above 100 µM in each case.

Take `CCC(C)C(N)C(=O)NC(CC(N)=O)C(=O)NC(CC(C)C)C(=O)NC(CCCCN)C(=O)NC(C)C(=O)NC(CC(C)C)C(=O)NC(C)C(=O)NC(C)C(=O)NC(CC(C)C)C(=O)NC(C)C(=O)NC(CCCCN)C(=O)NC(CCCCN)C(=O)NC(C(=O)NC(CC(C)C)C(N)=O)C(C)CC` (centres undefined): the TGI in the experiment with A498 renal was found to be 32.5 µM; in the experiment with HT29 colon, 35.9 µM; with IGROV1 ovarian, 34.4 µM; with MALME-3M melanoma, 10.7 µM; in the experiment with MOLT-4 leukemia, 38.5 µM; in the experiment on OVCAR-5 ovarian it was 28 µM. The TGI with SK-MEL-2 melanoma came out at 36.8 µM; in the experiment with SR leukemia it was 46.1 µM; in the experiment on UACC-62 melanoma, 13.8 µM.

Consider `O=C(O)/C(Cl)=C(\Cl)C(=O)c1ccccc1`, for which the TGI in the experiment on A498 renal, in the experiment with HT29 colon, in the experiment with IGROV1 ovarian, in the experiment with MALME-3M melanoma, in the experiment on MOLT-4 leukemia and in the experiment with OVCAR-5 ovarian was above 100 µM each time. Moreover, the TGI with SK-MEL-2 melanoma, with SR leukemia and in the experiment on UACC-62 melanoma was above 100 µM in each case.

In the case of `CCOP(=O)(OCC)/C(C#N)=C/c1cccn1C(C)C`, the TGI in the experiment on A498 renal, in the experiment with HT29 colon, in the experiment on IGROV1 ovarian, with MALME-3M melanoma, with MOLT-4 leukemia and in the experiment on OVCAR-5 ovarian was above 100 µM in each case. In addition, the TGI in the experiment with SK-MEL-2 melanoma, with SR leukemia and in the experiment on UACC-62 melanoma was above 100 µM each time.

Turning to `CC(=O)OC(CC1(C)C(C)CCC23COC(=O)C2=CCCC31)c1ccoc1` (centres undefined), the TGI in the experiment with A498 renal was above 100 µM; with HT29 colon it was above 100 µM; with MALME-3M melanoma, 55.2 µM; in the experiment with MOLT-4 leukemia, 90.3 µM; in the experiment on OVCAR-5 ovarian it was 67.4 µM; with SK-MEL-2 melanoma, 49.7 µM. In the experiment with UACC-62 melanoma, this compound gave a TGI of 59.9 µM.
